Experimental data as given in BindingDB's records for doi:10.1016/j.bmcl.2003.09.065 (Northwestern University, 2003).

Test: KI for pyridoxal 5'-phosphate (PLP)-dependent Gamma-amino-N-butyrate transaminase at pH 7.4

Ki: 6.3 µM
SMILES: NC1C=C(C(=O)O)OC1 (stereo unspecified) [4-Amino-4,5-dihydro-furan-2-carboxylic acid anion]
